PubChem BioAssay AID248 (DTP/NCI, 2004)
Inconclusive results and toxic doses are left out. No stated cut-off is given here; in the data, active means T/C of 150% or more; inactive means T/C below 125%.

Tested on: L1210 leukemia ip in BDF1 mice, survival T/C
Assay: NCI In Vivo Anticancer Drug Screen. Data for tumor model L1210 Leukemia (intraperitoneal) in B6D2F1 (BDF1) mice
Conditions: endpoint: mean survival time, higher = longer survival
Method in brief: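 Survival endpoint. Drug-treated group vs vehicle group, expressed as T divided by C. Tumor passaged by transplantation.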

[1] = dose: 100.0 mg/kg/injection, schedule: Q01DX009 (ip), vehicle: Klucel (hydroxypropylcellulose) (HPC)
[2] = dose: 200.0 mg/kg/injection, schedule: Q01DX009 (ip), vehicle: Klucel (hydroxypropylcellulose) (HPC)
[3] = dose: 400.0 mg/kg/injection, schedule: Q01DX009 (ip), vehicle: Klucel (hydroxypropylcellulose) (HPC)
[4] = dose: 400.0 mg/kg/injection, schedule: Q01DX001 (ip), vehicle: saline
[5] = dose: 100.0 mg/kg/injection, schedule: Q01DX009 (ip), vehicle: saline
[6] = dose: 200.0 mg/kg/injection, schedule: Q01DX009 (ip), vehicle: saline
[7] = dose: 400.0 mg/kg/injection, schedule: Q01DX009 (ip), vehicle: saline
[8] = dose: 100.0 mg/kg/injection, schedule: Q04DX003 (ip), vehicle: Klucel (hydroxypropylcellulose) (HPC)
[9] = dose: 200.0 mg/kg/injection, schedule: Q04DX003 (ip), vehicle: Klucel (hydroxypropylcellulose) (HPC)
[10] = dose: 400.0 mg/kg/injection, schedule: Q04DX003 (ip), vehicle: Klucel (hydroxypropylcellulose) (HPC)
[11] = dose: 100.0 mg/kg/injection, schedule: Q01DX001 (ip), vehicle: saline
[12] = dose: 100.0 mg/kg/injection, schedule: Q01DX001 (ip), vehicle: Klucel (hydroxypropylcellulose) (HPC)
[13] = dose: 200.0 mg/kg/injection, schedule: Q01DX001 (ip), vehicle: Klucel (hydroxypropylcellulose) (HPC)
[14] = dose: 400.0 mg/kg/injection, schedule: Q01DX001 (ip), vehicle: Klucel (hydroxypropylcellulose) (HPC)
[15] = dose: 200.0 mg/kg/injection, schedule: Q01DX001 (ip), vehicle: saline
[16] = dose: 100.0 mg/kg/injection, schedule: Q04DX002 (ip), vehicle: saline
[17] = dose: 200.0 mg/kg/injection, schedule: Q04DX002 (ip), vehicle: saline
[18] = dose: 400.0 mg/kg/injection, schedule: Q04DX002 (ip), vehicle: saline
[19] = dose: 100.0 mg/kg/injection, schedule: Q01DX001 (ip), vehicle: carboxymethylcellulose (CMC)
[20] = dose: 200.0 mg/kg/injection, schedule: Q01DX001 (ip), vehicle: carboxymethylcellulose (CMC)
[21] = dose: 400.0 mg/kg/injection, schedule: Q01DX001 (ip), vehicle: carboxymethylcellulose (CMC)
[22] = dose: 100.0 mg/kg/injection, schedule: Q01DX009 (ip), vehicle: saline with Tween-80

Measured: T/C

O=P(c1ccc[nH]1)(c1ccc[nH]1)c1ccc[nH]1
inactive: dose: 100.0 mg/kg/injection, schedule: Q04DX002 (ip), vehicle: gum acacia 101 % of control | dose: 200.0 mg/kg/injection, schedule: Q04DX002 (ip), vehicle: gum acacia 93 % of control | dose: 400.0 mg/kg/injection, schedule: Q04DX002 (ip), vehicle: gum acacia 108 % of control

CCOC(=O)/C(C)=C\C=C(\C)CCC=C(C)C
inactive: [1] 104 % of control | [2] 102 % of control | [3] 104 % of control

CCOC(=O)C(N)CCSSCCC(N)C(=O)OCC (stereo not drawn)
inactive: dose: 177.0 mg/kg/injection, schedule: Q01DX001 (ip), vehicle: saline 92 % of control | dose: 267.0 mg/kg/injection, schedule: Q01DX001 (ip), vehicle: saline 92 % of control | [4] 95 % of control | dose: 600.0 mg/kg/injection, schedule: Q01DX001 (ip), vehicle: saline 104 % of control

CC(=O)NCCc1ccc(NCCCc2c(-c3ccccc3)nc(N)[nH]c2=O)cc1
inactive: [5] 97 % of control | [6] 95 % of control | [7] 101 % of control

CCS(=O)(=O)C(=CN(C)C)S(=O)(=O)CC
inactive: dose: 75.0 mg/kg/injection, schedule: Q04DX003 (ip), vehicle: saline 97 % of control | dose: 150.0 mg/kg/injection, schedule: Q04DX003 (ip), vehicle: saline 97 % of control | dose: 300.0 mg/kg/injection, schedule: Q04DX003 (ip), vehicle: saline 92 % of control

Nc1ccc(CNC(=O)COc2ccc(Cl)cc2C(=O)O)cc1
inactive: [8] 110 % of control | [9] 94 % of control | [10] 100 % of control

CCCCCCCCC(=O)CCC
inactive: [1] 98 % of control | [8] 98 % of control | [2] 98 % of control | [9] 106 % of control | [3] 98 % of control | [10] 91 % of control

CC1CC2(CCC1=O)OCCO2 (stereo not drawn)
inactive: dose: 100.0 mg/kg/injection, schedule: Q01DX001 (ip), vehicle: other 95 % of control | dose: 200.0 mg/kg/injection, schedule: Q01DX001 (ip), vehicle: other 95 % of control | dose: 400.0 mg/kg/injection, schedule: Q01DX001 (ip), vehicle: other 96 % of control

On1ccc(N2CCOCC2)cc1=NC1CCCCC1
inactive: dose: 5.0 mg/kg/injection, schedule: Q01DX001 (ip), vehicle: saline 95 % of control | dose: 10.0 mg/kg/injection, schedule: Q01DX001 (ip), vehicle: saline 97 % of control | dose: 20.0 mg/kg/injection, schedule: Q01DX001 (ip), vehicle: saline 90 % of control | dose: 40.0 mg/kg/injection, schedule: Q01DX001 (ip), vehicle: saline 98 % of control | dose: 80.0 mg/kg/injection, schedule: Q01DX001 (ip), vehicle: saline 101 % of control | [11] 103 % of control

C/C=C1/C[N+]2(C)CCC34C(=C(C(=O)OC)C1CC32)Nc1ccc(O)cc14 (stereo not drawn)
inactive: dose: 6.25 mg/kg/injection, schedule: Q01DX001 (ip), vehicle: saline with Tween-80 97 % of control | dose: 12.5 mg/kg/injection, schedule: Q01DX001 (ip), vehicle: saline with Tween-80 102 % of control | dose: 25.0 mg/kg/injection, schedule: Q01DX001 (ip), vehicle: saline with Tween-80 96 % of control

O=C(c1ccccc1)C1CSS(=O)(=O)C1c1ccccc1 (stereo not drawn)
inactive: [12] 97 % of control | [13] 99 % of control | [14] 92 % of control

Cc1ccc(S(=O)(=O)C2=C(c3ccccc3)c3ccccc3CC2)cc1
inactive: [11] 101 % of control | [5] 93 % of control | dose: 100.0 mg/kg/injection, schedule: Q04DX003 (ip), vehicle: acetone 100 % of control | [15] 93 % of control | [6] 91 % of control | dose: 200.0 mg/kg/injection, schedule: Q04DX003 (ip), vehicle: acetone 102 % of control | [4] 95 % of control | [7] 93 % of control | dose: 400.0 mg/kg/injection, schedule: Q04DX003 (ip), vehicle: acetone 105 % of control

CCOP(=S)(OCC)Oc1ccc(Sc2ccc(OP(=S)(OCC)OCC)cc2)cc1
inactive: [11] 101 % of control | [15] 101 % of control | [4] 107 % of control

CCOC(=O)N(OC(C)=O)P(=O)(N1CC1)N1CC1
inactive: [16] 100 % of control | [17] 100 % of control | [18] 104 % of control

O=C(Nc1ccccc1)NC1CCCCC1
inactive: [12] 100 % of control | [13] 95 % of control | [14] 101 % of control

C=CCSc1ccccc1C(=O)O
inactive: dose: 50.0 mg/kg/injection, schedule: Q01DX001 (ip), vehicle: carboxymethylcellulose (CMC) 122 % of control | [19] 95 % of control | [20] 106 % of control | [21] 106 % of control

O=NN1CCN(N=O)CC1
inactive: [19] 94 % of control | dose: 100.0 mg/kg/injection, schedule: Q04DX003 (ip), vehicle: saline with Tween-80 101 % of control

CCCCC(=O)N/N=C\c1ccc(C(=O)O)cc1
inactive: [19] 96 % of control | [20] 100 % of control | [21] 110 % of control

CC(C)=NOC(CC(=O)O)C(=O)O (stereo not drawn)
inactive: [16] 96 % of control | [17] 96 % of control | [18] 96 % of control

CCOC(=O)c1nc2c(OC)nn(O)cc-2c1[N+](=O)[O-]
inactive: dose: 12.5 mg/kg/injection, schedule: Q04DX002 (ip), vehicle: saline with Tween-80 92 % of control | dose: 25.0 mg/kg/injection, schedule: Q04DX002 (ip), vehicle: saline with Tween-80 99 % of control

C[n+]1cccc(C(=O)N/N=C/C=C/c2ccccc2)c1
inactive: dose: 50.0 mg/kg/injection, schedule: Q01DX009 (ip), vehicle: saline with Tween-80 96 % of control | [22] 100 % of control

Cc1ccc(NC(=O)Nc2ccccc2C(F)(F)F)cc1NC(=O)Nc1ccccc1C(F)(F)F
inactive: [22] 92 % of control | dose: 200.0 mg/kg/injection, schedule: Q01DX009 (ip), vehicle: saline with Tween-80 90 % of control | dose: 400.0 mg/kg/injection, schedule: Q01DX009 (ip), vehicle: saline with Tween-80 92 % of control

CCN(CC)CCN(C)CC(=O)Nc1cccc(Cl)c1C
inactive: dose: 25.0 mg/kg/injection, schedule: Q01DX009 (ip), vehicle: saline 106 % of control | dose: 50.0 mg/kg/injection, schedule: Q01DX009 (ip), vehicle: saline 93 % of control | dose: 75.0 mg/kg/injection, schedule: Q01DX001 (ip), vehicle: saline 101 % of control | [5] 98 % of control | dose: 150.0 mg/kg/injection, schedule: Q01DX001 (ip), vehicle: saline 102 % of control | dose: 150.0 mg/kg/injection, schedule: Q01DX009 (ip), vehicle: saline 100 % of control
